Earlier results in US10751328B2, “Therapy for chronic idiopathic urticaria, anaphylaxis and angioedema” (priority 2013, dated 2020).

Experiments:
[1] = system: white blood cell counts (eosinophil, basophils); details: ALS subjects, 150 mg twice daily up to 18 months, monthly CBCs; FIGS. 1 to 4 (prior art poster)
[2] = system: chronic idiopathic urticaria symptoms; details: patients with chronic idiopathic urticaria symptomatic despite approved doses of H1-antihistamines; 139 patients
[3] = dihydrochloride monohydrate salt, crystalline
wheal and flare reaction = details: versus histamine

For `CCCN[C@@H]1CCc2nc(N)sc2C1` [Dexpramipexole, (6R)-4,5,6,7-tetrahydro-N6-propyl-2,6 benzothiazole diamine], the “effect on white blood cell counts” value [1] is listed as “reduce white blood cell counts, especially eosinophil and basophils”.
For “omalizumab: agent effective in chronic idiopathic urticaria through its reduction of FcεRI function in basophils and mast cells”, the effect on symptoms [2] is listed as “beneficial effects on symptoms”.
In the case of `CCCN[C@H]1CCc2nc(N)sc2C1` [pramipexole, (6S)-2-amino-4,5,6,7-tetrahydro-6-(propylamino)benzothiazole], the solubility in water [3] is listed as “extremely well soluble in water”.
For `CCCCC/C=C\C\C=C/C=C/C=C/[C@@H](SC[C@H](NC(=O)CC[C@H](N)C(=O)O)C(=O)NCC(=O)O)[C@@H](O)CCCC(=O)O` [LTC4, leukotriene C4], the “potency relative to histamine in causing wheal and flare reaction” value (wheal and flare reaction) is listed as “about 1,000 times”.
